# Assay results as given in patent publication US9795695B2, “Process for the preparation of gadobenate dimeglumine complex in a solid form” (BRACCO IMAGING S.p.A., priority 2009, dated 2017).
# Test: dissolution of the solid form in water
# Assay type: physicochemical
# Conditions: for time for dissolution in water: room temperature
"water required to dissolve 1 g of product (per 1 g of product, room temperature (20° C. to 30° C.))",time for dissolution in water,time for dissolution in water (listed as powdered gadobenate),Compound,ease of dissolution (in words) (aqueous solution)
–,–,–,"CNC[C@H](O)[C@@H](O)[C@H](O)[C@H](O)CO.CNC[C@H](O)[C@@H](O)[C@H](O)[C@H](O)CO.O=C([O-])CN(CCN(CC(=O)[O-])CC(=O)O)CCN(CC(=O)O)C(COCc1ccccc1)C(=O)[O-].[Gd+3] (stereo not shown) [Comparative Example 2a, gadobenate dimeglumine]","difficult to collect and, in case, to re-dissolve"
less than 1 mL,few seconds,less than one minute,CNC[C@H](O)[C@@H](O)[C@H](O)[C@H](O)CO.CNC[C@H](O)[C@@H](O)[C@H](O)[C@H](O)CO.O=C([O-])CN(CCN(CC(=O)[O-])CC(=O)O)CCN(CC(=O)O)C(COCc1ccccc1)C(=O)[O-].[Gd+3] (stereo not shown) [gadobenate dimeglumine],–
